Assay results: US6586439B2, “Pharmaceutically active compounds” (Pfizer Inc., priority 1999, dated 2003)

Tested on: cGMP PDE5
Assay: In vitro PDE inhibitory activity against cGMP PDE5 (batch method or scintillation proximity assay)
Assay type: biochemical, human or rabbit
Method: In vitro PDE inhibitory activities against cyclic guanosine 3′,5′-monophosphate (cGMP) and cyclic adenosine 3′,5′-monophosphate (cAMP) phosphodiesterases were determined by measurement of their IC50 values (the concentration of compound required for 50% inhibition of enzyme activity).
The required PDE enzymes were isolated from a variety of sources, including human corpus cavernosum, human and rabbit platelets, human cardiac ventricle, human skeletal muscle and bovine retina, essentially by the method of W. J. Thompson and M. M. Appleman (Biochem., 1971, 10, 311). In particular, the cGMP-specific PDE (PDE5) and the cGMP-inhibited cAMP PDE (PDE3) were obtained from human corpus cavernosum tissue, human platelets or rabbit platelets; the cGMP-stimulated PDE (PDE2) was obtained from human corpus cavernosum; the calcium/calmodulin (Ca/CAM)-dependent PDE (PDE1) from human cardiac ventricle; the cAMP-specific PDE (PDE4) from human skeletal muscle; and the photoreceptor PDE (PDE6) from bovine retina. Phosphodiesterases 7-11 were generated from full length human recombinant clones transfected into SF9 cells.
Assays were performed either using a modification of the “batch” method of W. J. Thompson et al. (Biochem., 1979, 18, 5228) or using a scintillation proximity assay for the direct detection of AMP/GMP using a modification of the protocol described by Amersham plc under product code TRKQ7090/7100. In summary, the effect of PDE inhibitors was investigated by assaying a fixed amount of enzyme in the presence of varying inhibitor concentrations and low substrate, (cGMP or cAMP in a 3:1 ratio unlabelled to [^3H]-labeled at a conc ˜1/3 Km) such that IC50 ≅Ki. The final assay volume was made up to 100 μl with assay buffer [20 mM Tris-HCl pH 7.4, 5 mM MgCl2, 1 mg/ml bovine serum albumin]. Reactions were initiated with enzyme, incubated for 30-60 min at 30° C. to give <30% substrate turnover and terminated with 50 μl yttrium silicate SPA beads (containing 3 mM of the respective unlabelled cyclic nucleotide for PDEs 9 and 11). Plates were re-sealed and shaken for 20 min, after which the beads were allowed to settle for 30 min in the dark and then counted on a TopCount plate reader (Packard, Meriden, Conn.) Radioactivity units were converted to % activity of an uninhibited control (100%), plotted against inhibitor concentration and inhibitor IC50 values obtained using the ‘Fit Curve’ Microsoft Excel extension.

Row | SMILES | Percentage inhibition of PDE 5 (Concentration 10 nM) | Percentage inhibition of PDE 5 (Concentration 100 nM)
1 | CCCCOc1ncc(S(=O)(=O)N2CCN(CC)CC2)cc1-c1nc2c(nc(Cc3ccccc3)n2CCC)c(=O)[nH]1 [Example 7, 8-Benzyl-2-[2-n-butoxy-5-(4-ethylpiperazin-1-ylsulfonyl)pyridin-3-yl]-9-n-propylpurin-6-one] | 80.3 | –
2 | CCCOc1ccc(S(=O)(=O)N2CCN(C)CC2)cc1-c1nc2[nH]c(-c3cccnc3)nc2c(=O)[nH]1 [Example 5, 2-[5-(4-Methylpiperazin-1-ylsulfonyl)-2-n-propoxyphenyl]-8-(pyridin-3-yl)-9H-purin-6-one] | – | 48
3 | CCCOc1ccc(S(=O)(=O)N2CCN(CC)CC2)cc1-c1nc2c(ncn2-c2ccc(N)cc2)c(=O)[nH]1 [Example 4, 9-(4-Aminophenyl)-2-[5-(4-ethylpiperazin-1-ylsulfonyl)-2-n-propoxy-phenyl]purin-6-one] | 74.1 | –
4 | CCCOc1ccc(S(=O)(=O)N2CCN(c3ccccn3)CC2)cc1-c1nc2c(ncn2CCC)c(=O)[nH]1 [Example 9, 2-(2-n-Propoxy-5-[4-{pyridin-2-yl}piperazin-1-ylsulfonyl]phenyl)-9-n-propylpurin-6-one] | 100 | –
5 | CCCOc1ccc(S(=O)(=O)N2CCN(CC)CC2)cc1-c1nc2[nH]cnc2c(=O)[nH]1 [Example 1, 2-[5-(4-Ethylpiperazin-1-ylsulfonyl)-2-n-propoxyphenyl]-9H-purin-6-one] | – | 47
